# Results: the supplement of paper PMC10949913
# How the values were obtained:
# Assay in all cases: area under concentration-response curve (viability) (AUC (a.u.)); higher = less active
# Conditions in all cases: 48 h
# [1] = system: CU-ACC1
# How it was run: (§1)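 Library compounds were tested at 11 concentrations against three adrenocortical carcinoma cell lines in 1,536-well plates. CellTiter-Glo luminescence was read after 48 h and normalised per plate to vehicle and empty-well controls. Only inhibitory or non-responding curve classes from fitted concentration-response curves contributed AC50 and area under the curve.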
# [2] = system: CU-ACC2
# How it was run: as §1
# [3] = system: NCI-H295R
# How it was run: as §1
Structure (SMILES),area under concentration-response curve [1],area under concentration-response curve [2],area under concentration-response curve [3]
Cn1c(Nc2ccc(C(F)(F)F)cc2)nc2cc(Oc3ccnc(-c4nc(C(F)(F)F)c[nH]4)c3)ccc21,369,508,469
CC(NC1=CC=CC=C1)C\2=C\C(=C/N3C(=O)\C=C(/N=C23)N4CCOCC4)C (centres undefined),414,647,583
CCN1CCN(c2ccc(Nc3cc(N(C)C(=O)Nc4c(Cl)c(OC)cc(OC)c4Cl)ncn3)cc2)CC1,511,580,479
C=C[C@H]1CN2CC[C@H]1C[C@H]2[C@H](O)c1ccnc2ccc(OC)cc12,501,602,521
C[C@H]1C[C@H]2[C@@H]3CC\C4=C\C(=O)\C=C/[C@]4(C)[C@H]3C(=O)C[C@]2(C)[C@@]1(O)C(=O)CO,511,618,488
CCCc1cc(C(N)=S)ccn1,587,649,581
C[C@H](NC(=O)CCC(F)(F)F)C(=O)N[C@@H]1C(=O)N(CCO)c2ncccc2-c2ccccc21,472,511,475
CCN(C(=O)c1ccccc1OC)c1cc2c(cc1N1CCNC[C@H]1C)n(C)c(=O)n2C,544,628,510
O=C(CCc1ccc(O)cc1)c1c(O)cc(O)cc1O,531,653,585
CC/1=C(/C(CC(=O)N1)C2=CC=C(C=C2)C(F)(F)F)C(=O)NC3=C(F)C=C4[NH]N=CC4=C3 (centres undefined),477,560,557
CN(C)CC(C)(C)CNc1nn2c(-c3ccccc3)nnc2cc1C1CCC1,473,566,469
COC1=CC=C(C=C1O)C/2=C/C(=O)C3=C(O2)C=C(O[C@@H]4O[C@H](CO[C@@H]5O[C@@H](C)[C@H](O)[C@@H](O)[C@H]5O)[C@@H](O)[C@H](O)[C@H]4O)C=C3O,502,582,554
COC1=C(F)C=C\2C(=C1)\N=C/3NNC(=C3\N=C2C4=CC=CC=C4Cl)/C,538,528,552
Cn1ncc2cc(-c3cnc(N)c(Cl)c3N3CCC4(CCNC4=O)CC3)ccc21,475,484,536
CN(C(=O)c1ccc(F)cc1C(F)(F)F)C1CCN(c2nnc(-c3ccnn3C)c3ccccc23)CC1,495,601,566
C[C@@H]1CC[C@H]2[C@@H](C)C(=O)O[C@@H]3O[C@@]4(C)CC[C@@H]1[C@]32OO4,547,604,556
N\C1=N\C2=C(N=C[N]2COC(CO)CO)C(=O)N1,567,645,605
OCCN1C[C@H](O)[C@@H](O)[C@H](O)[C@H]1CO,519,540,489
COc1ccc([C@@H]2CC(=O)c3c(O)cc(O[C@@H]4O[C@H](CO[C@@H]5O[C@@H](C)[C@H](O)[C@@H](O)[C@H]5O)[C@@H](O)[C@H](O)[C@H]4O)cc3O2)cc1O,480,593,547

Structure (SMILES),area under concentration-response curve [1],area under concentration-response curve [2],area under concentration-response curve [3]
COc1ccc2[nH]cc(CCNC(C)=O)c2c1,592,668,578
Cc1cccc(-c2nn3c(c2-c2ccnc4ccc(C(N)=O)cc24)CCC3)n1,546,628,575
N/C1=N/C(=O)C/2=C(NC[C@@H](CNC3=CC=C(C=C3)C(=O)N[C@@H](CCC([O-])=O)C([O-])=O)N2C=O)\N1,494,552,529
CCOC(=O)[C@H](CCc1ccccc1)N[C@H]1CS[C@H](c2cccs2)CN(CC(=O)O)C1=O.Cl,513,584,541
O=C(CCCc1ccc2cccnc2n1)NCc1cc(-c2ccc(F)c(C(F)(F)F)c2)no1,512,615,491
C[C@@H]1CC[C@@]2(OC1)OC1CC3C4CC=C5CC(O)CCC5(C)C4CCC3(C)C1[C@@H]2C (some centres undefined),470,527,465
COc1ccccc1[C@H](c1cccc2ccccc12)[C@@](C)(C#N)C(=O)N1CCC(c2cccc(C(F)(F)F)c2)CC1,566,665,587
CC(=O)NC(C)c1ccc(Oc2ccc(OC(C)C)cc2)cc1 (centres undefined),539,605,547
Cc1onc(-c2ccc(F)cc2)c1COc1ccc(C(=O)N2CC[S+](=O)([O-])CC2)cn1,596,646,616
C=CC[N+]1([C@H]2C[C@H]3[C@@H]4CC[C@H]5C[C@H](O)[C@@H](N6CCOCC6)C[C@]5(C)[C@H]4CC[C@]3(C)[C@H]2OC(C)=O)CCCC1,597,639,610
CC(C)(C)C(=O)Oc1ccc2c(c1)nc(NC(=O)c1cccc([N+](=O)[O-])c1)n2CCCO,506,584,525
C[C@]12CC[C@@H]3c4ccc(OC(=O)N(CCCl)CCCl)cc4CC[C@H]3[C@@H]1CC[C@@H]2OP(=O)([O-])[O-],489,466,533
CC1(C)Cc2c(sc(NC(=S)NC(=O)c3ccccc3)c2C(=O)O)CO1,490,586,522
CN[C@@H](C)C(=O)N[C@H]1CN(C(=O)CC(C)C)CC[C@H]2CC[C@@H](C(=O)NC(c3ccccc3)c3ccccc3)N2C1=O,338,372,420
C[C@H]1COC/2=C1/C(=O)C(=O)C3=C4CCCC(C)(C)C4=CC=C23,525,601,540
CCOc1ccccc1N/N=C1/C(=O)N(c2nc(-c3ccccc3)cs2)N=C1C,569,639,570
CC(C)(O)C(=O)Nc1ccc([N+](=O)[O-])c(C(F)(F)F)c1,505,602,537
CCCN[S+](=O)([O-])Nc1ncnc(OCCOc2ncc(Br)cn2)c1-c1ccc(Br)cc1,381,567,518
CNC(=O)[C@@H](NC(=O)[C@H](CC(C)C)[C@H](O)C(=O)NO)C(C)(C)C,513,615,563
